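Briefly, cells in 96-well plates were exposed to five compound concentrations for 48 h, and endpoints were estimated by linear interpolation. The concentration for 50% growth inhibition is given as GI50. TGI: concentration producing complete growth inhibition.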
Key:
Experiment in all cases: inhibition of tumour cell growth, NCI panel, 48 h
[1] = system: SK-MEL-28 melanoma
[2] = system: NCI/ADR-RES ovarian
[3] = system: NCI-H460 lung
[4] = system: SF-268 CNS
[5] = system: SF-539 CNS
[6] = system: SR leukemia
[7] = system: ACHN renal
[8] = system: A549 NSCLC
[9] = system: 786-0 renal
[10] = system: HS 578T breast
[11] = system: MDA-MB-231 breast
[12] = system: SW-620 colon
[13] = system: SN12C renal
[14] = system: KM12 colon
[15] = system: HOP-62 NSCLC
[16] = system: OVCAR-5 ovarian
[17] = system: U251 CNS
[18] = system: SNB-19 CNS
[19] = system: M14 melanoma
[20] = system: NCI-H522 lung
[21] = system: OVCAR-8 ovarian
[22] = system: DU-145 prostate
[23] = system: SK-OV-3 ovarian
[24] = system: SNB-75 CNS
[25] = system: HOP-92 NSCLC
[26] = system: RPMI-8226 leukemia
[27] = system: T-47D breast
[28] = system: MALME-3M melanoma
[29] = system: K-562 leukemia
[30] = system: UACC-257 melanoma
[31] = system: BT-549 breast
[32] = system: TK-10 renal
[33] = system: UACC-62 melanoma
[34] = system: SK-MEL-2 melanoma
[35] = system: IGROV1 ovarian
[36] = system: RXF 393 renal
[37] = system: CCRF-CEM leukemia
[38] = system: CAKI-1 renal
[39] = system: SF-295 CNS
[40] = system: EKVX NSCLC
[41] = system: NCI-H23 lung
[42] = system: HCT-15 colon
[43] = system: HCT-116 colon
[44] = system: HL-60(TB) leukemia
[45] = system: OVCAR-4 ovarian
[46] = system: MDA-MB-435
[47] = system: MOLT-4 leukemia
[48] = system: SK-MEL-5 melanoma
[49] = system: COLO 205 colon
[50] = system: NCI-H226 lung
[51] = system: A498 renal

## N#Cc1cnc2ccc(-c3cnc4[nH]ncc4c3)cc2c1N1CCc2cc(F)c(Cl)cc21
[1]
  GI50: 330 nM
  TGI: > 100000 nM
[2]
  GI50: 334 nM
  TGI: > 100000 nM
[3]
  GI50: 327 nM
  TGI: > 100000 nM
[4]
  GI50: 296 nM
[5]
  GI50: 230 nM
  TGI: 564 nM
[6]
  GI50: 262 nM
  TGI: > 100000 nM
[7]
  GI50: 360 nM
  TGI: > 100000 nM
[8]
  GI50: 292 nM
  TGI: > 100000 nM
[9]
  GI50: 370 nM
  TGI: 5120 nM
[10]
  GI50: 151 nM
  TGI: 406 nM
[11]
  GI50: 302 nM
  TGI: 6700 nM
[12]
  GI50: 389 nM
  TGI: > 100000 nM
[13]
  GI50: 303 nM
  TGI: > 100000 nM
[14]
  GI50: 400 nM
  TGI: > 100000 nM
[15]
  GI50: 255 nM
  TGI: 1100 nM
[16]
  GI50: 371 nM
  TGI: > 100000 nM
[17]
  GI50: 373 nM
  TGI: > 100000 nM
[18]
  GI50: 399 nM
  TGI: > 35400 nM
[19]
  GI50: 322 nM
  TGI: > 100000 nM
[20]
  GI50: 254 nM
  TGI: 725 nM
[21]
  GI50: 348 nM
  TGI: > 100000 nM
[22]
  GI50: 372 nM
  TGI: > 100000 nM
[23]
  GI50: 214 nM
  TGI: 591 nM
[24]
  GI50: 145 nM
  TGI: 428 nM
[25]
  GI50: 204 nM
  TGI: 673 nM
[26]
  GI50: 402 nM
  TGI: > 100000 nM
[27]
  GI50: 214 nM
  TGI: > 100000 nM
[28]
  GI50: 232 nM
  TGI: 648 nM
[29]
  GI50: 360 nM
  TGI: > 100000 nM
[30]
  GI50: 312 nM
  TGI: > 100000 nM
[31]
  GI50: 232 nM
  TGI: 716 nM
[32]
  GI50: 275 nM
  TGI: > 36200 nM
[33]
  GI50: 250 nM
[34]
  GI50: 222 nM
  TGI: 518 nM
[35]
  GI50: 177 nM
  TGI: 544 nM
[36]
  GI50: 171 nM
  TGI: 599 nM
[37]
  GI50: 355 nM
  TGI: > 100000 nM
[38]
  GI50: 250 nM
  TGI: > 100000 nM
[39]
  GI50: 206 nM
  TGI: 599 nM
[40]
  GI50: 309 nM
  TGI: > 100000 nM
[41]
  GI50: 406 nM
  TGI: > 100000 nM
[42]
  GI50: 293 nM
  TGI: > 100000 nM

## Cc1ccc(NC(=O)c2ccc(CN3CCN(C)CC3)c(C(F)(F)F)c2)cc1Oc1ccc(-c2[nH]nc3ncnc(N)c23)cc1
[1]
  GI50: 1740 nM
  TGI: 3390 nM
[43]
  GI50: 1890 nM
  TGI: 4350 nM
[2]
  GI50: 3080 nM
  TGI: 12900 nM
[44]
  GI50: 6420 nM
  TGI: 78500 nM
[45]
  GI50: 18700 nM
  TGI: 42000 nM
[3]
  GI50: 1840 nM
  TGI: 3590 nM
[4]
  GI50: 3770 nM
  TGI: 30200 nM
[5]
  GI50: 1160 nM
  TGI: 2500 nM
[7]
  GI50: 1730 nM
  TGI: 3180 nM
[8]
  GI50: 2180 nM
  TGI: 5360 nM
[10]
  GI50: 4970 nM
  TGI: 42800 nM
[12]
  GI50: 1970 nM
  TGI: 3690 nM
[13]
  GI50: 3680 nM
  TGI: 18700 nM
[14]
  GI50: 1600 nM
  TGI: 3670 nM
[15]
  GI50: 2260 nM
  TGI: 5140 nM
[16]
  GI50: 1970 nM
  TGI: 3660 nM
[19]
  GI50: 1720 nM
  TGI: 4280 nM
[20]
  GI50: 3040 nM
  TGI: 9350 nM
[22]
  GI50: 1830 nM
  TGI: 3470 nM
[23]
  GI50: 23500 nM
  TGI: 56500 nM
[24]
  GI50: 419 nM
  TGI: 24000 nM
[27]
  GI50: 2610 nM
  TGI: 7170 nM
[29]
  GI50: 713 nM
  TGI: > 100000 nM
[30]
  GI50: 2510 nM
  TGI: 5800 nM
[46]
  GI50: 1610 nM
  TGI: 3340 nM
[32]
  GI50: 32400 nM
  TGI: 63300 nM
[47]
  GI50: 2030 nM
  TGI: 7310 nM
[33]
  GI50: 2020 nM
  TGI: 4810 nM
[48]
  GI50: 1670 nM
  TGI: 3090 nM
[49]
  GI50: 7290 nM
  TGI: 25200 nM
[34]
  GI50: 23200 nM
  TGI: 81700 nM
[50]
  GI50: 18000 nM
  TGI: 72900 nM
[51]
  GI50: 18400 nM
  TGI: 42900 nM
[38]
  GI50: 9050 nM
  TGI: 29700 nM
[39]
  GI50: 8510 nM
  TGI: 44100 nM
[40]
  GI50: 2010 nM
  TGI: 4190 nM
[42]
  GI50: 1570 nM
  TGI: 3290 nM
